# Assay results as given in US8268781B2.
# Like-named read-outs stand apart in the source and are kept apart here.
# Experiment: Ex vivo bio-distribution studies
# Details: In-111 labeled, 555 kBq tail vein, mean of 4 mice; for tissue uptake at 1 h / tissue uptake at 4 h / tissue uptake at 24 h: mouse, iv, total radioactivity; for tissue uptake at 1 h: 1 h p.i.
# Description: The in vivo bio-distribution can, for example, be shown in rodents such as hairless mice. For this purpose […] CHO cells are injected into hairless mice. After approx. 3 to 5 weeks tumors approx. 300 mg in size had grown.
# 1, 4 und 24 h p.i. all the mice are killed and their organs removed.
# The uptake of radioactivity is measured and the organs are weighed. The % of injected dose program of organ weight is calculated.
# Mean value from the bio-distribution with 4 mice pro group in % i.D./g Stadev: standard deviation.
smiles,measurement,setting,value
"CC[C@H](C)[C@H](NC(=O)[C@H](Cc1ccccc1)NC(=O)[C@H](CCC(=O)O)NC(=O)[C@H](CCCCN)NC(=O)[C@H](C)NC(=O)[C@H](C)NC(=O)[C@H](CCC(N)=O)NC(=O)CNC(=O)[C@H](CCC(=O)O)NC(=O)[C@H](CC(C)C)NC(=O)[C@H](Cc1ccc(O)cc1)NC(=O)[C@H](CO)NC(=O)[C@H](CO)NC(=O)[C@@H](NC(=O)[C@H](CC(=O)O)NC(=O)[C@H](CO)NC(=O)[C@@H](NC(=O)[C@H](Cc1ccccc1)NC(=O)[C@@H](NC(=O)CNC(=O)[C@H](CCC(=O)O)NC(=O)[C@H](C)NC(=O)[C@@H](N)Cc1c[nH]cn1)[C@@H](C)O)[C@@H](C)O)C(C)C)C(=O)N[C@@H](C)C(=O)N[C@@H](Cc1c[nH]c2ccccc12)C(=O)N[C@@H](CC(C)C)C(=O)N[C@H](C(=O)N[C@@H](CCCCN)C(=O)NCC(=O)N[C@@H](CCCNC(=N)N)C(=O)N[C@@H](CCCCNC(=O)CN(CCN(CCN(CC(=O)O)CC(=O)O)CC(=O)O)CC(=O)O)C(N)=O)C(C)C [MC10, (DTPA-Lys^37) GLP1 (7-36) amide]",Uptake in Blood,4 h p.i.,0.00 % i.D./g
same,Uptake in Muscle,4 h p.i.,0.00 % i.D./g
same,Uptake in Blood,24 h p.i.,0.00 % i.D./g
same,Uptake in Heart,24 h p.i.,0.00 % i.D./g
same,Uptake in Muscle,24 h p.i.,0.00 % i.D./g
same,tissue uptake at 1 h,"hairless mice, pancreas, read-out: Uptake in Pancreas",0.58 %ID/g
same,tissue uptake at 4 h,"hairless mice, pancreas, 4 h p.i., read-out: Uptake in Pancreas",0.62 %ID/g
same,tissue uptake at 1 h,"hairless mice, spleen, read-out: Uptake in Spleen",0.02 %ID/g
same,tissue uptake at 4 h,"hairless mice, spleen, 4 h p.i., read-out: Uptake in Spleen",0.01 %ID/g
same,tissue uptake at 24 h,"hairless mice, spleen, 24 h p.i., read-out: Uptake in Spleen",0.01 %ID/g
same,tissue uptake at 1 h,"hairless mice, stomach, read-out: Uptake in Stomach",0.14 %ID/g
same,tissue uptake at 4 h,"hairless mice, stomach, 4 h p.i., read-out: Uptake in Stomach",0.13 %ID/g
same,tissue uptake at 24 h,"hairless mice, stomach, 24 h p.i., read-out: Uptake in Stomach",0.07 %ID/g
same,tissue uptake at 24 h,"hairless, GLP-1 receptor negative tumor, 24 h p.i., read-out: Uptake in Tumor− (GLP-1 receptor negative tumor)",0.01 %ID/g
same,tissue uptake at 1 h,"hairless, GLP-1 receptor positive tumor, read-out: Uptake in Tumor+ (GLP-1 receptor positive tumor)",0.42 %ID/g
same,tissue uptake at 4 h,"hairless, GLP-1 receptor positive tumor, 4 h p.i., read-out: Uptake in Tumor+ (GLP-1 receptor positive tumor)",0.31 %ID/g
same,tissue uptake at 24 h,"hairless, GLP-1 receptor positive tumor, 24 h p.i., read-out: Uptake in Tumor+ (GLP-1 receptor positive tumor)",0.2 %ID/g
same,tissue uptake at 1 h,"hairless, blood, read-out: Uptake in Blood",0.01 %ID/g
same,tissue uptake at 1 h,"hairless, liver, read-out: Uptake in Liver",0.03 %ID/g
same,tissue uptake at 4 h,"hairless, liver, 4 h p.i., read-out: Uptake in Liver",0.01 %ID/g
same,tissue uptake at 24 h,"hairless, liver, 24 h p.i., read-out: Uptake in Liver",0.01 %ID/g
same,tissue uptake at 1 h,"GLP-1 receptor negative tumor, read-out: Uptake in Tumor− (GLP-1 receptor negative tumor)",0.03 %ID/g
same,tissue uptake at 4 h,"GLP-1 receptor negative tumor, 4 h p.i., read-out: Uptake in Tumor− (GLP-1 receptor negative tumor)",0.02 %ID/g
same,tissue uptake at 1 h,"bones, read-out: Uptake in Bones",0.02 %ID/g
same,tissue uptake at 4 h,"bones, 4 h p.i., read-out: Uptake in Bones",0.01 %ID/g
same,tissue uptake at 24 h,"bones, 24 h p.i., read-out: Uptake in Bones",0.01 %ID/g
same,tissue uptake at 1 h,"heart, read-out: Uptake in Heart",0.02 %ID/g
same,tissue uptake at 4 h,"heart, 4 h p.i., read-out: Uptake in Heart",0.01 %ID/g
same,tissue uptake at 1 h,"intestine, read-out: Uptake in Intestine",0.12 %ID/g
same,tissue uptake at 4 h,"intestine, 4 h p.i., read-out: Uptake in Intestine",0.07 %ID/g
same,tissue uptake at 24 h,"intestine, 24 h p.i., read-out: Uptake in Intestine",0.04 %ID/g
same,tissue uptake at 1 h,"kidneys, read-out: Uptake in Kidneys",7.9 %ID/g
same,tissue uptake at 4 h,"kidneys, 4 h p.i., read-out: Uptake in Kidneys",7.41 %ID/g
same,tissue uptake at 24 h,"kidneys, 24 h p.i., read-out: Uptake in Kidneys",4.85 %ID/g
same,tissue uptake at 1 h,"lungs, read-out: Uptake in Lungs",0.8 %ID/g
same,tissue uptake at 4 h,"lungs, 4 h p.i., read-out: Uptake in Lungs",0.36 %ID/g
same,tissue uptake at 24 h,"lungs, 24 h p.i., read-out: Uptake in Lungs",0.22 %ID/g
same,tissue uptake at 1 h,"muscle, read-out: Uptake in Muscle",0.01 %ID/g
same,tissue uptake at 24 h,"pancreas, 24 h p.i., read-out: Uptake in Pancreas",0.37 %ID/g
